Experiments:
Sphingomonas strain ASU1 = assay: Carbon source utilization (growth on S12 agar) by strain ASU1; format: cell-based; conditions: compound as sole source of carbon and energy, 28° C., listed as 2,6-DMN
Method: S12 agar was used to isolate bacteria from liquid enrichment cultures that grow on 2,6-DMN and to test isolates for growth with various sources of carbon and energy. S12 agar was prepared by adding 1.5% Noble agar (DIFCO) to S12 medium.
Since 2,6-DMN has low aqueous solubility, bacteria growing in S12 medium were supplied with 2,6-DMN by adding a few flakes of the compound directly to the culture. Bacteria growing on S12 agar were supplied with naphthalene, 2-methylnapthalene or 2,6-DMN by placing a few flakes of the compound on the interior of the petri dish lid. All petri dishes were sealed with parafilm and incubated with the lid on the bottom.
Bacteria that grow on 2,6-DMN were isolated from an enrichment culture. The enrichment culture was established by inoculating 0.1 mL of activated sludge into 10 mL of S12 medium in a 125 mL screw cap Erlenmeyer flask. The activated sludge was obtained from a DuPont wastewater treatment facility. The enrichment culture was supplemented with adding yeast extract (0.001% final concentration) by adding a few flakes of 2,6-DMN directly to the culture medium. The enrichment culture was incubated at 28° C. with reciprocal shaking. The culture was diluted every 4 to 7 d by replacing 9 mL of the culture with the same volume of S12 medium with 0.001% yeast extract and a few additional flakes of 2,6-DMN. […]

[1] = test system: ASU1 xylene monooxygenase; assay: Oxidation of 2,6-DMN by Escherichia coli recombinant with cloned ASU1 xylene monooxygenase genes (Clone 4a); format: cell-based, Sphingomonas strain ASU1; conditions: E. coli Clone 4a; M9 medium; 24 mg 2,6-DMN in FC-75 carrier phase; 37° C.; HPLC and GC/MS; metabolites 6-M-2-HMN, 6-M-2-NA, 2,6-NDC
Method: (§1) HPLC system used was a Hewlett Packard 1100 series with a photo diode array detector and LC/MSD-ESI Negative ion. Column used was Hewlett Packard part #880975-902 Zorbax® SB-C18 (4.6×12.5 mm, 5 micron), purchased from Agilient Technologies (Foster City, Calif.). The column temperature was controlled at 30° C. Mobile phase was […] ammonium acetate [20 mL 1 M ammonium acetate in 1800 mL water (solvent-2=S-2)] and acetonitrile (Solvent-1=S-1). The gradient used was 0-3 min 10% S-1 and 90% S-2, gradient was increased to 100% S-1 in 33 min, and again reduced to 10% S-1 and 90% S-2 in 3 min. Flow rate used for the mobile phase was 0.9 mL/min. 100 μL samples were injected, 230 nm wavelength was used for detection of the intermediates of 2,6-dimethylnaphthalene. Intermediates were prepared by as follows, as intermediates needed were not available in the market. Intermediates prepared were 6-methyl-2-napthoic acid, 6-methyl-2-hydroxymethylnaphthalene, and 2,6-Bis(hydroxymethyl)naphthalene. The retention time and diode array scans of the intermediates matched with the prepared standards. The mass spectrometer fragmentation pattern of the 6-methyl-2-napthoic acid in the sample matched that of the standards prepared.
(§2) GC/MS was also used to analyze the samples. […]
(§3) The conversion of 2,6-DMN to 2,6-NDC was monitored by reverse phase HPLC. […]

[2] = target: T1, pWWO xylene monooxygenase (Pseudomonas putida, UniProt P21395); assay: Oxidation of 2,6-DMN by Escherichia coli recombinant with cloned pWWO xylene monooxygenase genes (Clone 6f); format: cell-based; conditions: E. coli Clone 6f; M9 medium; 24 mg 2,6-DMN in FC-75 carrier phase; 37° C.; HPLC and GC/MS; metabolites 6-M-2-HMN, 6-M-2-NA, 2,6-HMN
T1 construct: A fragment of pWWO DNA that contained xylM and xylA was cloned into a small, multicopy plasmid; expressed in transfected cells; host or cells: Escherichia coli TOP10 carrying pCR2.1-TOPO with the 2.4 kb pWWO xylM-xylA PCR fragment from strain ATCC 33015 (Clone 6f)
Method: as §1, §2, §3

[3] = Aqueous solubility (statement); format: physicochemical

T1 sequence (P21395 whole entry, the tested form may be a part): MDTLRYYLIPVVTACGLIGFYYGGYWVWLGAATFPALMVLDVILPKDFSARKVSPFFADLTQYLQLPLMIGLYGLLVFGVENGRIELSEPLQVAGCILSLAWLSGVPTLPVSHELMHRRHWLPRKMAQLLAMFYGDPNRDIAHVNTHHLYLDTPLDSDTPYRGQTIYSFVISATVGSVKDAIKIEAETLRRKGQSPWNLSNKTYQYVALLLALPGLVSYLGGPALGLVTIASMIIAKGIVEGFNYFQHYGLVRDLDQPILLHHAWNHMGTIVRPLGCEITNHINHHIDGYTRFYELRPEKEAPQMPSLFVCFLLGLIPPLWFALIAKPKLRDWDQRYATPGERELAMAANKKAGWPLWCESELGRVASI

Cc1ccc2cc(C)ccc2c1 [2,6-dimethylnaphthalene, 2,6-Dimethylnaphthalene]
Growth on Carbon Source (Sphingomonas strain ASU1): able to grow
Substrate for the ASU1 xylene monooxygenase (oxidation by Clone 4a) [1]: substrate
Substrate for the pWWO xylene monooxygenase (oxidation by Clone 6f) [2]: substrate
aqueous solubility [3]: low

Source: US20030077768A1, “Use of xylene monooxygenase for the oxidation of substituted polycyclic aromatic compounds” (priority 2001, published 2003)
